Measurements taken from patent publication US20060069132A1, “Azolecarboxamide herbicides” (priority 2004, published 2006).

Columns and labels:
rice [1] = test: Test B flooded paddy test; type: in vivo, Oryza sativa; details: 1000 g ai/ha, scale 0 to 100 (0 no effect, 100 complete control)
Outline: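 Plants grow to 1- to 4-leaf stage (2–18 cm) for postemergence spraying, or to 2-leaf stage for the paddy test. Formulated compound is applied. Greenhouse holding lasts 13–15 days. Response is scored visually relative to controls, 0 no effect to 100 complete control; a dash means no result.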

ducksalad = test: Test B flooded paddy test; type: in vivo, Heteranthera limosa; details: 1000 g ai/ha, scale 0 to 100 (0 no effect, 100 complete control)
Outline: (§1)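 Paddy species grown to the 2-leaf stage under flooding; blackgrass sprayed postemergence at 2–18 cm (1- to 4-leaf stage). Plants kept in a greenhouse for 13 to 15 days, then visually rated against controls on 0 (no effect) to 100 (complete control).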

blackgrass = test: Test B postemergence herbicide test; type: in vivo, Alopecurus myosuroides
Outline: as §1

velvetleaf = test: Test B pre-/postemergence herbicide test; type: in vivo, Abutilon theophrasti
Outline: (§2)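 Pre: seeds sown, then sprayed. Post: 1–4-leaf plants (2–18 cm) sprayed at the same time. Paddy: flooded, treated at 2-leaf stage. Formulation: non-phytotoxic solvent with surfactant. Greenhouse 13–15 days; visual 0–100 score relative to controls.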

barnyardgrass [2] = test: Test B pre-/postemergence herbicide test; type: in vivo, Echinochloa crus-galli
Outline: (§3)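 Test chemicals in a non-phytotoxic solvent mixture with surfactant were applied preemergence to seeded species and postemergence to plants 2-18 cm tall (1- to 4-leaf stage); rice and barnyardgrass were also tested in a flooded paddy at the 2-leaf stage. Visual rating versus controls after 13-15 days in greenhouse, scale 0 (no effect) to 100 (complete control).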

rice [3] = test: Test B pre-/postemergence herbicide test; type: in vivo, Oryza sativa; details: 0 = no effect, 100 = complete control, preemergence; for Rice plant response rating (0 to 100 scale): 125 g ai/ha; for Plant response rating, Rice: 500 g ai/ha, visual rating
Outline: as §2

corn = test: Test B pre-/postemergence herbicide test; type: in vivo, Zea mays
Outline: as §2

morningglory = test: Test B pre-/postemergence herbicide test; type: in vivo, Ipomoea coccinea
Outline: as §3

[4] = tested on: small flower umbrella sedge; test: Test B flooded paddy test; type: in vivo, Cyperus difformis; details: 1000 g ai/ha, scale 0 to 100 (0 no effect, 100 complete control)
Outline: as §1

Surinam grass = test: Test B pre-/postemergence herbicide test; type: in vivo, Urochloa decumbens
Outline: as §2

wheat = test: Test B postemergence herbicide test; type: in vivo, Triticum aestivum; design: key to Wheat plant response rating: 0 = no effect, 100 = complete control
Outline: (§4)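 Each value is a visual 0–100 response rating taken against controls 13 to 15 days after treatment in the greenhouse. Plants received formulated chemical postemergence at the 1- to 4-leaf stage or, in flooded paddy, at the 2-leaf stage.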

giant foxtail = test: Test B pre-/postemergence herbicide test; type: in vivo, Setaria faberi
Outline: as §2

lambsquarters = test: Test B pre-/postemergence herbicide test; type: in vivo, Chenopodium album
Outline: as §2

barnyardgrass [5] = test: Test B flooded paddy test; type: in vivo, Echinochloa crus-galli; details: 1000 g ai/ha, scale 0 to 100 (0 no effect, 100 complete control)
Outline: as §1

wild oat = test: Test B postemergence herbicide test; type: in vivo, Avena fatua
Outline: as §4

cocklebur = test: Test B pre-/postemergence herbicide test; type: in vivo, Xanthium strumarium
Outline: as §3

large crabgrass = test: Test B pre-/postemergence herbicide test; type: in vivo, Digitaria sanguinalis
Outline: as §2

pigweed = test: Test B pre-/postemergence herbicide test; type: in vivo, Amaranthus retroflexus
Outline: as §2

[6] = 125 g ai/ha; visual rating, scale 0 (no effect) to 100 (complete control); postemergence
[7] = postemergence, 500 g ai/ha; scale 0 to 100, 0 is no effect, 100 is complete control
[8] = 500 g ai/ha; visual rating, 0 = no effect, 100 = complete control; preemergence
[9] = 125 g ai/ha; 0 = no effect, 100 = complete control; preemergence
[10] = postemergence, 125 g ai/ha; visual rating, scale 0 (no effect) to 100 (complete control)
[11] = postemergence, 500 g ai/ha; visual rating, scale 0 (no effect) to 100 (complete control)

Q: For `CCc1nn(C(C)(C)C)cc1C(=O)Nc1cccc(C(=O)N(C)C)n1` [Compound 292], which “Rice plant response rating” value (rice [1]) is on record?
A: 30

Q: And the “Ducksalad plant response rating” value (ducksalad)?
A: 0

Q: And the “Blackgrass plant response rating” value (blackgrass; [6])?
A: 10

Q: And the “Blackgrass plant response rating” value (blackgrass; [7])?
A: 20

Q: And the “Velvetleaf plant response rating” value (velvetleaf; [6])?
A: 10

Q: What about the “Plant response rating, Velvetleaf” value (velvetleaf; [8]) of the same molecule?
A: 70

Q: What about the “Velvetleaf plant response rating” value (velvetleaf; [7]) of the same molecule?
A: 10

Q: And the “Barnyardgrass plant response rating (0 to 100 scale)” value (barnyardgrass [2]; [9])?
A: 10

Q: What about the “Barnyardgrass plant response rating” value (barnyardgrass [2]; [6]) of the same molecule?
A: 0

Q: And the “Plant response rating, Barnyardgrass” value (barnyardgrass [2]; [8])?
A: 90

Q: And the “Barnyardgrass plant response rating” value (barnyardgrass [2]; [7])?
A: 0

Q: And the “Rice plant response rating (0 to 100 scale)” value (rice [3])?
A: 0

Q: And the “Plant response rating, Rice” value (rice [3])?
A: 90

Q: And the “Corn plant response rating (0 to 100 scale)” value (corn; [9])?
A: 0

Q: And the “Corn plant response rating” value (corn; [6])?
A: 10

Q: And the “Plant response rating, Corn” value (corn; [8])?
A: 80

Q: And the “Corn plant response rating” value (corn; [7])?
A: 20

Q: What about the “Morningglory plant response rating (0 to 100 scale)” value (morningglory; [9]) of the same molecule?
A: 0

Q: And the “Morningglory plant response rating” value (morningglory; [6])?
A: 0

Q: What about the “Plant response rating, Morningglory” value (morningglory; [8]) of the same molecule?
A: 30

Q: And the “Morningglory plant response rating” value (morningglory; [7])?
A: 20

Q: What about the “Sedge, Umbrella plant response rating” value [4] of the same molecule?
A: 60

Q: And the “Surinam Grass plant response rating (0 to 100 scale)” value (Surinam grass; [9])?
A: 20

Q: And the “Surinam Grass plant response rating” value (Surinam grass; [6])?
A: 0

Q: And the “Plant response rating, Surinam Grass” value (Surinam grass; [8])?
A: 100

Q: What about the “Surinam Grass plant response rating” value (Surinam grass; [7]) of the same molecule?
A: 20

Q: And the “Wheat plant response rating” value (wheat; [6])?
A: 0

Q: What about the “Wheat plant response rating” value (wheat; [7]) of the same molecule?
A: 20

Q: What about the “Foxtail, Giant plant response rating (0 to 100 scale)” value (giant foxtail; [9]) of the same molecule?
A: 0

Q: What about the “Foxtail, Giant plant response rating” value (giant foxtail; [6]) of the same molecule?
A: 0

Q: And the “Plant response rating, Foxtail, Giant” value (giant foxtail; [8])?
A: 70

Q: What about the “Foxtail, Giant plant response rating” value (giant foxtail; [7]) of the same molecule?
A: 20

Q: What about the “Lambsquarters plant response rating (0 to 100 scale)” value (lambsquarters; [9]) of the same molecule?
A: 70

Q: And the “Lambsquarters plant response rating” value (lambsquarters; [6])?
A: 30

Q: And the “Plant response rating, Lambsquarters” value (lambsquarters; [8])?
A: 100

Q: What about the “Lambsquarters plant response rating” value (lambsquarters; [7]) of the same molecule?
A: 70

Q: What about the “Barnyardgrass plant response rating” value (barnyardgrass [5]) of the same molecule?
A: 20

Q: What about the “Oat, Wild plant response rating” value (wild oat; [6]) of the same molecule?
A: 10

Q: And the “Oat, Wild plant response rating” value (wild oat; [7])?
A: 40

Q: And the “Cocklebur plant response rating (0 to 100 scale)” value (cocklebur; [9])?
A: 0

Q: And the “Cocklebur plant response rating” value (cocklebur; [6])?
A: 0

Q: And the “Plant response rating, Cocklebur” value (cocklebur; [8])?
A: 40

Q: And the “Cocklebur plant response rating” value (cocklebur; [7])?
A: 10

Q: And the “Crabgrass, Large plant response rating (0 to 100 scale)” value (large crabgrass; [9])?
A: 80

Q: And the “Crabgrass, Large plant response rating” value (large crabgrass; [6])?
A: 0

Q: What about the “Plant response rating, Crabgrass, Large” value (large crabgrass; [8]) of the same molecule?
A: 100

Q: And the “Crabgrass, Large plant response rating” value (large crabgrass; [7])?
A: 10

Q: What about the “Pigweed plant response rating (0 to 100 scale)” value (pigweed; [9]) of the same molecule?
A: 40

Q: What about the “Pigweed plant response rating” value (pigweed; [6]) of the same molecule?
A: 20

Q: What about the “Plant response rating, Pigweed” value (pigweed; [8]) of the same molecule?
A: 100

Q: And the “Pigweed plant response rating” value (pigweed; [7])?
A: 30

Q: `CCc1nn(C(C)(C)C)cc1C(=O)Nc1cc(C(=O)N(C)CC)ccc1F` [Compound 224] was tested. Which “Rice plant response rating” value (rice [1]; visual rating, 13 to 15 days) did it give?
A: 90

Q: And the “Ducksalad plant response rating” value (ducksalad; visual rating, 13 to 15 days)?
A: 80

Q: What about the “Blackgrass plant response rating” value (blackgrass; [10]) of the same molecule?
A: 0

Q: And the “Blackgrass plant response rating” value (blackgrass; [11])?
A: 10

Q: What about the “Velvetleaf plant response rating (0 to 100 scale)” value (velvetleaf; [9]) of the same molecule?
A: 70

Q: And the “Plant response rating, Velvetleaf” value (velvetleaf; [8])?
A: 100

Q: And the “Velvetleaf plant response rating” value (velvetleaf; [10])?
A: 20

Q: What about the “Velvetleaf plant response rating” value (velvetleaf; [11]) of the same molecule?
A: 60

Q: What about the “Barnyardgrass plant response rating (0 to 100 scale)” value (barnyardgrass [2]; [9]) of the same molecule?
A: 30

Q: And the “Plant response rating, Barnyardgrass” value (barnyardgrass [2]; [8])?
A: 90

Q: And the “Barnyardgrass plant response rating” value (barnyardgrass [2]; [10])?
A: 10

Q: What about the “Barnyardgrass plant response rating” value (barnyardgrass [2]; [11]) of the same molecule?
A: 30

Q: And the “Rice plant response rating (0 to 100 scale)” value (rice [3])?
A: 30

Q: And the “Plant response rating, Rice” value (rice [3])?
A: 80

Q: And the “Corn plant response rating (0 to 100 scale)” value (corn; [9])?
A: 20

Q: What about the “Plant response rating, Corn” value (corn; [8]) of the same molecule?
A: 70

Q: And the “Corn plant response rating” value (corn; [10])?
A: 10

Q: What about the “Corn plant response rating” value (corn; [11]) of the same molecule?
A: 20

Q: And the “Plant response rating, Morningglory” value (morningglory; [8])?
A: 30

Q: What about the “Morningglory plant response rating” value (morningglory; [10]) of the same molecule?
A: 30

Q: What about the “Morningglory plant response rating” value (morningglory; [11]) of the same molecule?
A: 70

Q: And the “Sedge, Umbrella plant response rating” value ([4]; visual rating, 13 to 15 days)?
A: 80

Q: What about the “Surinam Grass plant response rating (0 to 100 scale)” value (Surinam grass; [9]) of the same molecule?
A: 60

Q: What about the “Plant response rating, Surinam Grass” value (Surinam grass; [8]) of the same molecule?
A: 100

Q: And the “Surinam Grass plant response rating” value (Surinam grass; [10])?
A: 10

Q: And the “Surinam Grass plant response rating” value (Surinam grass; [11])?
A: 20

Q: What about the “Wheat plant response rating” value (wheat; [10]) of the same molecule?
A: 0

Q: And the “Wheat plant response rating” value (wheat; [11])?
A: 30

Q: And the “Foxtail, Giant plant response rating (0 to 100 scale)” value (giant foxtail; [9])?
A: 10

Q: What about the “Plant response rating, Foxtail, Giant” value (giant foxtail; [8]) of the same molecule?
A: 70

Q: What about the “Foxtail, Giant plant response rating” value (giant foxtail; [10]) of the same molecule?
A: 20

Q: And the “Foxtail, Giant plant response rating” value (giant foxtail; [11])?
A: 30

Q: What about the “Lambsquarters plant response rating (0 to 100 scale)” value (lambsquarters; [9]) of the same molecule?
A: 100

Q: And the “Plant response rating, Lambsquarters” value (lambsquarters; [8])?
A: 100

Q: And the “Lambsquarters plant response rating” value (lambsquarters; [10])?
A: 60

Q: What about the “Lambsquarters plant response rating” value (lambsquarters; [11]) of the same molecule?
A: 70

Q: And the “Barnyardgrass plant response rating” value (barnyardgrass [5]; visual rating, 13 to 15 days)?
A: 90

Q: What about the “Oat, Wild plant response rating” value (wild oat; [10]) of the same molecule?
A: 0

Q: And the “Oat, Wild plant response rating” value (wild oat; [11])?
A: 30

Q: And the “Cocklebur plant response rating (0 to 100 scale)” value (cocklebur; [9])?
A: 20

Q: And the “Plant response rating, Cocklebur” value (cocklebur; [8])?
A: 50

Q: What about the “Cocklebur plant response rating” value (cocklebur; [10]) of the same molecule?
A: 10

Q: What about the “Cocklebur plant response rating” value (cocklebur; [11]) of the same molecule?
A: 40

Q: And the “Crabgrass, Large plant response rating (0 to 100 scale)” value (large crabgrass; [9])?
A: 30

Q: What about the “Plant response rating, Crabgrass, Large” value (large crabgrass; [8]) of the same molecule?
A: 100

Q: And the “Crabgrass, Large plant response rating” value (large crabgrass; [10])?
A: 10

Q: And the “Crabgrass, Large plant response rating” value (large crabgrass; [11])?
A: 20

Q: And the “Pigweed plant response rating (0 to 100 scale)” value (pigweed; [9])?
A: 80

Q: And the “Plant response rating, Pigweed” value (pigweed; [8])?
A: 100

Q: And the “Pigweed plant response rating” value (pigweed; [10])?
A: 40

Q: And the “Pigweed plant response rating” value (pigweed; [11])?
A: 60
